Source: patent US7323444B2, “Use of kahalalide compounds for the manufacture of a medicament for the treatment of psoriasis” (Pharma Mar, S.A.U., priority 2003, dated 2008)

Tests used:
psoriasis = tested on: psoriasis
Procedure: This phase I Clinical and Pharmacokinetic study was designed to determine the safety of Kahalalide F administered as a weekly infusion over 1 hour in patients with solid tumours. This trial was addressed to any solid tumours and was designed as a classical escalation. The patient was a patient with a psoriasis history since more than 40 years.

[1] = cited from earlier work
solid tumour cell lines = settings: preclinical studies, in vitro; cited from earlier work

SMILES: C/C=C1\NC(=O)[C@H](Cc2ccccc2)NC(=O)[C@@H](C(C)C)NC(=O)[C@@H](C(C)CC)NC(=O)[C@H](NC(=O)[C@H](NC(=O)[C@H](CCCN)NC(=O)[C@H]2CCCN2C(=O)[C@H](NC(=O)[C@@H](NC(=O)C(NC(=O)[C@H](NC(=O)CCCC(C)C)C(C)C)[C@@H](C)O)C(C)C)C(C)C)C(C)CC)C(C)OC(=O)[C@H](C(C)C)NC1=O (stereo partly shown) [kahalalide F]
- psoriasic symptoms after the first infusion (psoriasis; one patient, severe psoriasis, 650 μg/m^2 weekly iv infusion over 1 hour, after first infusion): quick improvement of the psoriasic symptoms
- remission of the cutaneous plaques with the following infusions (psoriasis; same patient, 650 μg/m^2 weekly, total of 7 infusions): nearly complete remission of the cutaneous plaques
- psoriasis status after end of treatment (psoriasis; same patient, two months after the last dose): still in a nearly complete remission situation
- maximum tolerated dose (MTD) ([1]; female mice, single bolus iv injection): 0.28 mg/kg
- acute toxicity on repeated administration ([1]; mice, 280 μg/kg once daily times five): without any apparent evidence of acute toxicity
- toxicity of single doses just above the MTDiv ([1]; mice, single iv doses just above MTD, signs of neurotoxicity followed by death): extremely toxic
- activity against solid tumour cell lines (solid tumour cell lines): significant activity
